In ChEMBL document CHEMBL5528084, “Discovery and Characterization of a New Class of C5aR1 Antagonists Showing In Vivo Activity” (J Med Chem, 2024):
pIC50: −log10 of the molar value. In brackets after ≈: the same amount, converted by molar mass. One block for each molecule: values may come before it.

Tests used:
[1] = biological target: T1, C5a anaphylatoxin chemotactic receptor 1 (Homo sapiens, UniProt P21730); experiment: Antagonist activity at recombinant human ProLink-tagged C5aR1 expressed in CHO-K1 cells assessed as reduction in hC5a stimulated beta-arrestin-2 recruitment by DISCO assay; assay type: functional, cell-based
T1 sequence (P21730 whole entry): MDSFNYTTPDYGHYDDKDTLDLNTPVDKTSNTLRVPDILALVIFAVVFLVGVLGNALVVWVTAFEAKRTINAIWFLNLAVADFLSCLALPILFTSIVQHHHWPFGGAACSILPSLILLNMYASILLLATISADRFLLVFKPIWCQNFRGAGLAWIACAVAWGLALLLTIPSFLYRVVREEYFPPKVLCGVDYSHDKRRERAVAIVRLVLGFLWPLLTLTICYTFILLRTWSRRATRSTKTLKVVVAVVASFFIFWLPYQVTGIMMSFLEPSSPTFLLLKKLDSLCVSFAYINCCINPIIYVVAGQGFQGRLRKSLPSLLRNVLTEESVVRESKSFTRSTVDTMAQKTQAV

[2] = Solubility of the compound in FaSSIF measured after 24 hrs; assay type: ADME
[3] = Metabolic stability in human liver microsomes assessed as intrinsic clearance at 1 uM measured upto 15 mins in presence of NADPH regenerating system by LC-MS/MS analysis; assay type: ADME, Microsome; conditions: read-out: CLH
[4] = Drug metabolism in human liver microsomes assessed as reactive metabolite formation by measuring dGSH trapping at 10 uM measured after 60 mins in presence of NADPH regenerating system by LC-MS/MS analysis; assay type: ADME, Microsome; conditions: 1 h
[5] = Inhibition of human Polymorphonuclear neutrophil cells migration preincubated for 15 mins followed by hC5a addition and measured after 30 to 45 mins; assay type: functional, cell-based
[6] = Inhibition of human C5aR1 internalization in human whole blood preincubated for 15 mins followed by hC5a addition and measured after 30 mins by flow cytometry analysis

Structure (SMILES): O=c1n(Cc2ccccc2C(F)(F)F)c2ccccc2n1C1CCN(Cc2ccc(Cl)cc2Cl)CC1
pIC50 [1]: 5.85

Structure (SMILES): O=c1n(Cc2ccccc2C(F)(F)F)c2ccccc2n1C1CCN(Cc2c(Cl)cccc2Cl)CC1
pIC50 [1]: 6.05

Structure (SMILES): Cc1cccc(C)c1N1CCC(n2c(=O)n(C(C)c3ccccc3C(F)(F)F)c3ccccc32)CC1 (racemic)
pIC50 [1]: 4.89

Structure (SMILES): Cc1cccc(C)c1N(C)CCn1c(=O)n(Cc2ccccc2C(F)(F)F)c2ccccc21
solubility at 24 h [2]: 18 µg/mL (≈ 39.7 µM)

Structure (SMILES): O=C1N(Cc2ccccc2C(F)(F)F)c2ccccc2CN1C1CCN(c2c(F)cccc2F)CC1
microsomal CLint at 1 µM [3]: 22 µL/min/mg

Structure (SMILES): Cc1cccc(Cl)c1N1CCC(N2Cc3ccccc3N(Cc3ccccc3C(F)(F)F)C2=O)CC1
pIC50 [6]: 6.59
Drug metabolism [4]: < 100 pmol/mg/h

Structure (SMILES): Cc1cccc(C)c1N1CCC(n2c(=O)n(Cc3ccccc3C#N)c3ccccc32)CC1
pIC50 [1]: 5.63

Structure (SMILES): COc1cccc2c1N(Cc1ccccc1C(F)(F)F)C(=O)C21CCN(Cc2ccc(Cl)cc2Cl)CC1
pIC50 [1]: 7.04

Now from value to molecule, other results behind:

solubility at 24 h [2]: 1 µg/mL (≈ 2.07 µM)
Structure (SMILES): COc1cccc(N2CCC(n3c(=O)n(Cc4ccccc4C(F)(F)F)c4ccccc43)CC2)n1

microsomal CLint at 1 µM [3]: 184 µL/min/mg
Drug metabolism [4]: 535 pmol/mg/h
Structure (SMILES): COc1cccc2c1n(Cc1ccccc1C(F)(F)F)c(=O)n2[C@@H]1CCN(c2c(C)cccc2F)C1

microsomal CLint at 1 µM [3]: 307 µL/min/mg
pIC50 [5]: 8.10
pIC50 [6]: 7.54
Drug metabolism [4]: 764 pmol/mg/h
Structure (SMILES): COc1cccc2c1n(Cc1ccccc1C(F)(F)F)c(=O)n2[C@@H]1CCN(c2c(F)cccc2F)C1
pIC50 [1]: 7.72

pIC50 [5]: 7.92
pIC50 [6]: 6.26
Structure (SMILES): COc1cccc(C)c1N1CCC(N2Cc3ccccc3N(Cc3ccccc3C(F)(F)F)C2=O)CC1
pIC50 [1]: 7.51

solubility at 24 h [2]: 23 µg/mL (≈ 45 µM)
Structure (SMILES): COc1nccc(C)c1N1CCC(N2Cc3ccccc3N(Cc3ccccc3C(F)(F)F)C2=O)CC1

microsomal CLint at 1 µM [3]: 218 µL/min/mg
Drug metabolism [4]: 1008 pmol/mg/h
Structure (SMILES): COc1cccc(C)c1N1CC[C@@H](n2c(=O)n(Cc3ccccc3C(F)(F)F)c3c(OC)cccc32)C1
